Entries after “also recorded” stand apart in the source; their conditions may differ. Read-outs that look alike come from different tables or passages of the source. Each block holds one compound with its values, some of them ahead of it.
Key:
pre-miR-21 = experiment: RT-qPCR of mature miR-21 and pre-miR-21 levels in MDA-MB-231 cells; type: cell-based, human; settings: for period over which significantly decreased miR-21 levels were observed after a single dose: Formula 2 1000 nM, Formula 5 50 nM; for effect on mature miR-21 levels / effect on pre-miR-21 levels: MDA-MB-231, RT-qPCR; for effect on pre-miR-21 upon siRNA ablation of RNase L: 5 at 50 nM
Procedure: Cell culture compound treatment and transfection. For treatment with compounds, stocks in DMSO or water were diluted in growth media and added to cells for 24-72 h. For transfection of plasmid DNA to overexpress the miR-21 hairpin precursor in pcDNA3.1 (Addgene 21114) or pcDNA3-RNaseL (R. H. Silverman, Cleveland Clinic^24) in 24-well plates, Lipofectamine 2000 was used according to the manufacturer's protocol. After transfection, the medium was removed and replaced with growth medium containing compound prepared as described above. For transfection of a control (Santa Cruz Biotechnology: sc-37007) or RNase L targeting siRNA (Santa Cruz Biotechnology: sc-45965), Lipofectamine RNAiMAX Reagent was used for transfection of oligonucleotides, including 2′-5′ A4, according to the manufacturer's protocol.

PDCD4 = PDCD4 Western blot in MDA-MB-231 cells; type: cell-based, human; settings: for effect on PDCD4 protein levels: Western blotting relative to β-actin
Procedure: PDCD4 Western blot: The MDA-MB-231 cells were grown to ˜60% confluency in 6-well plates. Cells were incubated with compounds diluted in growth media for 48 h. Total protein was extracted using M-PER Mammalian Protein Extraction Reagent (Pierce Biotechnology) supplemented with 1×Protease Inhibitor Cocktail III for Mammalian Cells (Research Products International Corp.) per the manufacturer's protocol. Total protein lysate was quantified using a Micro BCA Protein Assay Kit (Pierce Biotechnology). A 30 μg aliquot of total protein was resolved on a 10% Bis-Tris SDS-polyacrylamide gel, with a 5% stacking layer, and then transferred to a PVDF membrane. The membrane was then blocked in 5% (w/v) nonfat dry milk in 1×TBST for 1 h at room temperature. The membrane was then incubated with 1:2000 rabbit mAb PDCD4 primary antibody (Cell Signaling Technology: D29C6) in 1×TBST containing 5% nonfat dry milk overnight at 4° C. The membrane was washed five times for 5 min each with 1×TBST and then incubated with 1:5000 anti-rabbit IgG horseradish peroxidase secondary antibody conjugate (Cell Signaling Technology: 7074S) in 1×TBST containing 5% nonfat dry milk for 1 h at room temperature. After washing seven times for 5 min each with 1×TBST, protein levels were quantified by chemiluminescence using a SuperSignal West Pico Chemiluminescent Substrate (Pierce Biotechnology) per the manufacturer's recommendations. The membrane was stripped with 1×Stripping Buffer (200 mM glycine, pH 2.2, 1% Tween-20 and 0.1% SDS) two times for 5 min each, followed by washing 3 times in 1×TBST. Then, the membrane was blocked and probed for β-actin following the same procedure described above using 1:5000 mouse β-actin primary antibody (Cell Signaling Technology: 8H10D10). The membrane was washed five times with 1×TBST and incubated with 1:10000 anti-mouse IgG horseradish-peroxidase secondary antibody conjugate (Cell Signaling Technology: 7076S). After washing seven times with 1×TBST for 5 min each, protein levels were quantified as described above. ImageJ software was used to quantify band intensities.

MDA-MB-231 cells = experiment: Boyden chamber invasion assay, MDA-MB-231; type: cell-based, human; settings: for effect on invasion: MDA-MB-231, LNA-21 100 nM, 2 1000 nM; for effect on invasion upon transient expression of pre-miR-21: MDA-MB-231 + pre-miR-21
Procedure: (§1) Boyden Chamber Invasion Assay. The MDA-MB-231, MDA-LM2, A375, A549, or MCF-10a cells (5×10^4) were seeded into Hanging Cell Culture Inserts for 24 well plates with uncoated membranes with 8.0 μm pores (Millicell) in serum free growth media. A 3 mg/mL layer (100 μL) of Matrigel (Fisher Scientific: CB40234) diluted with serum free growth media was prepared inside of each membrane. Cells were cultured as described above, with or without compound treatment, and allowed to invade towards complete growth media in the bottom well for 16-24 h before ending the experiment by removing the media in the bottom wells and inserts. The hanging cell culture inserts and bottom wells were washed twice with 1×PBS, gently shaking to mix. Excess liquid and cells inside the insert were removed with cotton swabs, after which 400 μL of 4% paraformaldehyde was placed into the bottom well and incubated for 20 min at room temperature to fix the cells. The wells and inserts were washed twice with 1×PBS and then treated with 400 μL of 0.1% crystal violet solution for 20 min at room temperature to stain the cells. The wells and inserts were washed twice with water, followed by one wash with 1×PBS. Inserts were dried with cotton swabs to remove extra stain and cells inside the insert, then were air-dried, followed by Brightfield microscopic analysis using a Leica DMI3000 B upright fluorescent microscope. Four different fields of view from each captured image were counted for crystal violet stained or unstained cells. Normalized cells invaded was calculated with equation 5 (Eq 5): […]
(§2) where stained cells represent cells counted with crystal violet stain observed in the compound treated or vehicle treated samples, respectively.

A549 cells = experiment: Boyden chamber invasion assay, A549; type: cell-based; settings: LNA-21 100 nM, 2 1000 nM
Procedure: as §1, with “The wells and inserts were washed twice with 1×PBS and then treated with 400 μL of 0.1% crystal violet solution for 20 min at room temperature to stain the cells. The wells and inserts were washed twice with water, followed by one wash with 1×PBS. Inserts were dried with cotton swabs to remove extra stain and cells inside the insert, then were air-dried, followed by Brightfield microscopic analysis using a Leica DMI3000 B upright fluorescent microscope.” left out
as §2

A375 cells = experiment: Boyden chamber invasion assay, A375; type: cell-based; settings: LNA-21 100 nM, 2 1000 nM
Procedure: as §1, with “The wells and inserts were washed twice with 1×PBS and then treated with 400 μL of 0.1% crystal violet solution for 20 min at room temperature to stain the cells. The wells and inserts were washed twice with water, followed by one wash with 1×PBS. Inserts were dried with cotton swabs to remove extra stain and cells inside the insert, then were air-dried, followed by Brightfield microscopic analysis using a Leica DMI3000 B upright fluorescent microscope.” left out
as §2

[1] = system: miR-21-5p in HEK293T cells; experiment: RT-qPCR of mature miR-21-5p in HEK293T cells (dimer linker screening); type: cell-based; settings: n=3, n=4 and 1
[2] = system: miR-21 in various cancer cell lines; experiment: RT-qPCR of mature miR-21 in various cancer cell lines; type: cell-based
[3] = DMPK: plasma levels in C57BL/6 mice; type: in vivo, mouse; settings: i.p., 10 mg/kg
Procedure: DMPK Measurements: Male C57BL/6 mice (n=3, 5-7 weeks) were used for pharmacokinetics (PK) assessment. Mice were dosed i.p. (10 mg/kg) with 5 in a formulation of DMSO/Tween-80/H2O (10/10/80) and blood (25 μL) was drawn at 0.25, 0.5, 1, 2, 4, 6, 8, and 24 h time points. Detection of compound levels in blood plasma was determined using LC/MS-MS on a QTRAP 5500 LC-MS/MS System (AB Sciex).

- IC50 (pre-miR-21; MDA-MB-231, read-out: IC50, affecting pre-miR-21 in cells): 1 µM
SMILES: CCCN(CC(=O)N(CCC)CC(=O)N(CCC)CC(=O)N(CC(N)=O)Cc1cn(CCCNC(=O)CCCOc2ccc(-c3nc4cc(-c5ccc(N6CCN(C)CC6)cc5)ccc4[nH]3)cc2)nn1)C(=O)CNCc1cn(CCCNC(=O)CCCOc2ccc(-c3nc4cc(-c5ccc(N6CCN(C)CC6)cc5)ccc4[nH]3)cc2)nn1 [Compound 2]
- period over which significantly decreased miR-21 levels were observed after a single dose (pre-miR-21; MDA-MB-231): 48 h
- effect on mature miR-21 levels (pre-miR-21): decreased miR-21 levels; also recorded: decreases mature miR-21 levels
- effect on pre-miR-21 levels (pre-miR-21): increased pre-miR-21 levels; also recorded: boosted levels of pre-miR 21
- increase of PDCD4 levels (PDCD4; 1 μM, MDA-MB-231): ~50%
- effect on PDCD4 protein levels (PDCD4): de-repress levels of PDCD4 protein
- effect on invasion (MDA-MB-231 cells): decreased the invasive phenotype
- effect on invasion (MDA-MB-231 cells; listed as Formula 2): inhibited the invasive properties of MDA-MB-231
- effect on invasion (A549 cells): decreased the invasive phenotype
- effect on invasion (A375 cells): decreased the invasive phenotype
- inhibition of miR-21 levels, dose response of linker lengths [1]: most significantly inhibited miR-21 levels
- effect on mature miR-21 levels [2]: silenced miR-21

SMILES: CCCN(CC(=O)N(CCC)CC(=O)N(CCC)CC(=O)N(CC(=O)NCCOCCOCCOCCOc1ccc(C=C2SC(Nc3ccccc3)=C(C(=O)OCC)C2=O)cc1O)Cc1cn(CCCNC(=O)CCCOc2ccc(-c3nc4cc(-c5ccc(N6CCN(C)CC6)cc5)ccc4[nH]3)cc2)nn1)C(=O)CN(Cc1cn(CCCNC(=O)CCCOc2ccc(-c3nc4cc(-c5ccc(N6CCN(C)CC6)cc5)ccc4[nH]3)cc2)nn1)C(C)=O [Compound 5]
- effect on pre-miR-21 upon siRNA ablation of RNase L (pre-miR-21; MDA-MB-231): diminished effects
- effect on pre-miR-21 upon siRNA ablation of RNase L (pre-miR-21; MDA-MB-231, listed as Formula 5): decreased the ability of Formula 5 to cleave pre-miR-21
- period over which significantly decreased miR-21 levels were observed after a single dose (pre-miR-21; MDA-MB-231): 96 h
- enhanced activity for affecting miR-21 levels over parent 2 (pre-miR-21; MDA-MB-231): 20 fold
- potency of enzymatic cleavage versus bleomycin conjugate of 2 (pre-miR-21; MDA-MB-231): 10 fold
- effect on mature miR-21 levels (pre-miR-21): decreased miR-21 levels
- effect on pre-miR-21 levels (pre-miR-21): decreased pre-miR-21
- effect on pre-miR-21 levels (pre-miR-21; listed as Formula 5): diminished
- IC50 (pre-miR-21; MDA-MB-231, read-out: IC50, affecting miR-21 levels): ~0.05 µM
- effect on PDCD4 protein levels (PDCD4): de-repress levels of PDCD4 protein
- effect on invasion upon transient expression of pre-miR-21 (MDA-MB-231 cells): ablated
- effect on invasion upon transient expression of pre-miR-21 (MDA-MB-231 cells; listed as Formula 5): ablated the inhibitory effect
- effect on invasion (MDA-MB-231 cells): significant decrease of invasion
- effect on invasion (MDA-MB-231 cells; listed as Formula 5): effectively inhibited invasion
- effect on invasion (A549 cells; listed as Formula 5): decreased invasiveness
- effect on invasion (A375 cells; listed as Formula 5): decreased invasiveness
- concentrations maintained in mice (plasma) [3]: low nanomolar concentrations
- effect on mature miR-21 levels [2]: decreased mature miR-21 levels
- effect on mature miR-21 levels ([2]; listed as Formula 5): significantly inhibited miR-21 levels

— patent US12617757B2, “Compounds and modules for inhibition of pre-miR-21 and their use in treatment of certain cancers” (University of Florida Research Foundation, Incorporated, priority 2019, dated 2026)
